Assay results as given in the NIST ThermoML archive (doi:10.1021/acs.jced.6b00688).

Test: xn = mol fraction of the nth substance listed
Conditions: 100 kPa, Liquid; for viscosity: Falling or rolling sphere viscometry; for mass density: Vibrating tube method

OCC1CCCCC1 [cyclohexylmethanol] + CCCCCCCCCCCC
Conditions | mass density [kg/m3] | viscosity [mPa·s]
293.15 K, x2 = 0.1014 | 898.17 | 18.36
293.15 K, x2 = 0.1991 | 872.04 | 9.786
293.15 K, x2 = 0.299 | 849.06 | 6.177
293.15 K, x2 = 0.3997 | 828.81 | 4.307
293.15 K, x2 = 0.4992 | 811.3 | 3.223
293.15 K, x2 = 0.6005 | 795.57 | 2.542
293.15 K, x2 = 0.7008 | 781.83 | 2.087
293.15 K, x2 = 0.7986 | 769.9 | 1.809
293.15 K, x2 = 0.8996 | 758.73 | 1.594
298.15 K, x2 = 0.1014 | 894.59 | 14.59
298.15 K, x2 = 0.1991 | 868.46 | 7.99
298.15 K, x2 = 0.299 | 845.44 | 5.179
298.15 K, x2 = 0.3997 | 825.18 | 3.688
298.15 K, x2 = 0.4992 | 807.71 | 2.813
298.15 K, x2 = 0.6005 | 791.92 | 2.251
298.15 K, x2 = 0.7008 | 778.16 | 1.873
298.15 K, x2 = 0.7986 | 766.22 | 1.633
298.15 K, x2 = 0.8996 | 755.05 | 1.447
303.15 K, x2 = 0.1014 | 890.99 | 11.73
303.15 K, x2 = 0.1991 | 864.86 | 6.621
303.15 K, x2 = 0.299 | 841.79 | 4.403
303.15 K, x2 = 0.3997 | 821.5 | 3.197
303.15 K, x2 = 0.4992 | 804.02 | 2.479
303.15 K, x2 = 0.6005 | 788.23 | 2.01
303.15 K, x2 = 0.7008 | 774.47 | 1.69
303.15 K, x2 = 0.7986 | 762.53 | 1.481
303.15 K, x2 = 0.8996 | 751.37 | 1.321
308.15 K, x2 = 0.1014 | 887.35 | 9.573
308.15 K, x2 = 0.1991 | 861.23 | 5.545
308.15 K, x2 = 0.299 | 838.08 | 3.779
308.15 K, x2 = 0.3997 | 817.79 | 2.795
308.15 K, x2 = 0.4992 | 800.32 | 2.201
308.15 K, x2 = 0.6005 | 784.52 | 1.806
308.15 K, x2 = 0.7008 | 770.76 | 1.532
308.15 K, x2 = 0.7986 | 758.82 | 1.351
308.15 K, x2 = 0.8996 | 747.67 | 1.211
313.15 K, x2 = 0.1014 | 883.69 | 7.9
313.15 K, x2 = 0.1991 | 857.57 | 4.691
313.15 K, x2 = 0.299 | 834.37 | 3.271
313.15 K, x2 = 0.3997 | 814.07 | 2.461
313.15 K, x2 = 0.4992 | 796.59 | 1.966
313.15 K, x2 = 0.6005 | 780.79 | 1.631
313.15 K, x2 = 0.7008 | 767.03 | 1.395
313.15 K, x2 = 0.7986 | 755.09 | 1.237
313.15 K, x2 = 0.8996 | 743.96 | 1.115
318.15 K, x2 = 0.1014 | 879.99 | 6.588
318.15 K, x2 = 0.1991 | 853.91 | 4.005
318.15 K, x2 = 0.299 | 830.77 | 2.854
318.15 K, x2 = 0.3997 | 810.31 | 2.183
318.15 K, x2 = 0.4992 | 792.83 | 1.767
318.15 K, x2 = 0.6005 | 777.04 | 1.48
318.15 K, x2 = 0.7008 | 763.28 | 1.276
318.15 K, x2 = 0.7986 | 751.35 | 1.138
318.15 K, x2 = 0.8996 | 740.24 | 1.031
323.15 K, x2 = 0.1014 | 876.25 | 5.525
323.15 K, x2 = 0.1991 | 850.16 | 3.447
323.15 K, x2 = 0.299 | 827.01 | 2.507
323.15 K, x2 = 0.3997 | 806.53 | 1.947
323.15 K, x2 = 0.4992 | 789.05 | 1.594
323.15 K, x2 = 0.6005 | 773.26 | 1.348
323.15 K, x2 = 0.7008 | 759.51 | 1.171
323.15 K, x2 = 0.7986 | 747.58 | 1.05
323.15 K, x2 = 0.8996 | 736.5 | 0.957
328.15 K, x2 = 0.1014 | 872.47 | 4.696
328.15 K, x2 = 0.1991 | 846.36 | 2.99
328.15 K, x2 = 0.299 | 823.2 | 2.216
328.15 K, x2 = 0.3997 | 802.71 | 1.746
328.15 K, x2 = 0.4992 | 785.24 | 1.446
328.15 K, x2 = 0.6005 | 769.45 | 1.233
328.15 K, x2 = 0.7008 | 755.71 | 1.079
328.15 K, x2 = 0.7986 | 743.79 | 0.973
328.15 K, x2 = 0.8996 | 732.74 | 0.891
333.15 K, x2 = 0.1014 | 868.64 | 3.987
333.15 K, x2 = 0.1991 | 842.52 | 2.614
333.15 K, x2 = 0.299 | 819.35 | 1.972
333.15 K, x2 = 0.3997 | 798.87 | 1.574
333.15 K, x2 = 0.4992 | 781.41 | 1.318
333.15 K, x2 = 0.6005 | 765.62 | 1.132
333.15 K, x2 = 0.7008 | 751.89 | 0.997
333.15 K, x2 = 0.7986 | 739.98 | 0.904
333.15 K, x2 = 0.8996 | 728.97 | 0.832
